In the supplement of paper PMC11208160:

Test: recombinant barcode read abundance after kanamycin selection (control-corrected) (log10(CPM+1)); higher = more efficient recombination; sequences stand for … in AGTGCAGAGAAAATCGGCCAGTTTTCTCTGCCTGCAGTCCGCATGCCGT…AGATTTATGCAGCGGACTGCCTTTCTCCCAAAGTGATAAACCGGACAGTATCATGGACCGGTTTTCCCGGTAATCCGTATTTGCAAGGTTGGTTTCACT; site = the 11-nt target
Method in brief: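 Targets were screened in pooled form in E. coli against IS621 bridge RNA target-binding loops. Recombination efficiency is based on barcode counts at recombinant junctions in counts per million, averaged and corrected for the control. Numbers are shown as log10(CPM+1), with duplicate plates on chloramphenicol/ampicillin LB agar (control) or chloramphenicol/ampicillin/kanamycin with 0.1 mM IPTG.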
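Further: IS621 recombinase and bridge RNA in Escherichia coli cells.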

Compared with “TCAATAGCTTGGGTTCTAACCTGTTGCAC (site TCAATAGCTGT)”, “TCACACTCTTGGGTTCTAACCTGTTGCCT (site TCACACTCTAG)” is higher in “recombinant barcode read abundance (log10)” value: 1.28 for the first, 1.59 for the second.

“TCACACTCTTGGGTTCTAACCTGTTGCCT (site TCCCACTCTAG)” and “TCACACTCTTGGGTTCTAACCTGTTGCCT (site TCGCACTCTAG)” are within 0.2 log units of each other in “recombinant barcode read abundance (log10)” value: 0.111 for the first, 0.101 for the second.

“TCACACTCTTGGGTTCTAACCTGTTGCCT (site TCTCACTCTAG)” and “TCACCACCTTGGGTTCTAACCTGTTGCCT (site GAACCACCTAG)” are within 0.2 log units of each other in “recombinant barcode read abundance (log10)” value: 0.114 for the first, 0.028 for the second.

Compared with “TCACCACCTTGGGTTCTAACCTGTTGCCT (site TCACCACCTAG)”, “TCACCTTCTTGGGTTCTAACCTGTTGCCT (site TCACCTTCTAG)” is lower in “recombinant barcode read abundance (log10)” value: 0.744 for the first, 0.274 for the second.

First: TCACCTTCTTGGGTTCTAACCTGTTGCCT (site TCACTTCCTAG)
Second: TCACGTCCTTGGGTTCTAACCTGTTGCAG (site TCACGTCCTCT)
The “recombinant barcode read abundance (log10)” value of the first is lower: 0.0695 for the first, 0.829 for the second.

“TCACGTCCTTGGGTTCTAACCTGTTGCAG (site TCGCGTCCTCT)” and “TCAGCATCTTGGGTTCTAACCTGTTGCCT (site TCAGAATCTAG)” are within 0.2 log units of each other in “recombinant barcode read abundance (log10)” value: 0.183 for the first, 0.0342 for the second.

Compared with “TCAGCATCTTGGGTTCTAACCTGTTGCCT (site TCAGCATCTAG)”, “TCAGCATCTTGGGTTCTAACCTGTTGCCT (site TCAGGATCTAG)” is lower in “recombinant barcode read abundance (log10)” value: 0.457 for the first, 0.0504 for the second.

“TCAGCATCTTGGGTTCTAACCTGTTGCCT (site TCAGTATCTAG)” and “TCAGGATCTTGGGTTCTAACCTGTTGCCT (site TCAGAATCTAG)” are within 0.2 log units of each other in “recombinant barcode read abundance (log10)” value: 0.0947 for the first, 0.201 for the second.

Going from “TCAGGATCTTGGGTTCTAACCTGTTGCCT (site TCAGCATCTAG)” to “TCAGGATCTTGGGTTCTAACCTGTTGCCT (site TCAGGATCTAG)”, the “recombinant barcode read abundance (log10)” value rises from 0.0751 to 0.679.

“TCAGGATCTTGGGTTCTAACCTGTTGCCT (site TCAGTATCTAG)” and “TCATATACTTGGGTTCTAACCTGTTGCCT (site ACATTTACTAG)” are within 0.2 log units of each other in “recombinant barcode read abundance (log10)” value: 0.291 for the first, 0.238 for the second.

First: TCATATACTTGGGTTCTAACCTGTTGCCT (site TCATATACTAG)
Second: TCATATCCTTGGGTTCTAACCTGTTGCCT (site CTCCGAACTCT)
The “recombinant barcode read abundance (log10)” value of the first is higher: 0.553 for the first, 0.00468 for the second.

“TCATATCCTTGGGTTCTAACCTGTTGCCT (site TCATATCCTAG)” and “TCATCCGCTTGGGTTCTAACCTGTTGCCT (site CCATCCACTAG)” are within 0.2 log units of each other in “recombinant barcode read abundance (log10)” value: 0.167 for the first, 0.12 for the second.

“TCATCCGCTTGGGTTCTAACCTGTTGCCT (site TCATCCGCTAG)” and “TCCAAACCTTGGGTTCTAACCTGTTGCAG (site TCCAAACCTCT)” are within 0.2 log units of each other in “recombinant barcode read abundance (log10)” value: 1.05 for the first, 0.898 for the second.

“TCCAAACCTTGGGTTCTAACCTGTTGCAG (site TCCAACCCTCT)” and “TCCAAACCTTGGGTTCTAACCTGTTGCAG (site TCCAAGCCTCT)” are within 0.2 log units of each other in “recombinant barcode read abundance (log10)” value: 0.0235 for the first, 0.151 for the second.

“TCCAAACCTTGGGTTCTAACCTGTTGCAG (site TCCAATCCTCT)” and “TCCAGTCCTTGGGTTCTAACCTGTTGCTG (site AGCAGTCCTCA)” are within 0.2 log units of each other in “recombinant barcode read abundance (log10)” value: 0.0156 for the first, 0.0888 for the second.

Compared with “TCCAGTCCTTGGGTTCTAACCTGTTGCTG (site TCCAGTCCTCA)”, “TCCCAAGCTTGGGTTCTAACCTGTTGCTA (site TCCAAAGCTTA)” is higher in “recombinant barcode read abundance (log10)” value: 0.285 for the first, 0.589 for the second.

Compared with “TCCCAAGCTTGGGTTCTAACCTGTTGCTA (site TCCCAAGCTTA)”, “TCCCAAGCTTGGGTTCTAACCTGTTGCTA (site TCCGAAGCTTA)” is lower in “recombinant barcode read abundance (log10)” value: 1.32 for the first, 0.0505 for the second.

“TCCCAAGCTTGGGTTCTAACCTGTTGCTA (site TCCTAAGCTTA)” and “TCCCGACCTTGGGTTCTAACCTGTTGCCT (site TCCCGAACTAG)” are within 0.2 log units of each other in “recombinant barcode read abundance (log10)” value: 0.141 for the first, 0.135 for the second.

First: TCCCGACCTTGGGTTCTAACCTGTTGCCT (site TCCCGACCTAG)
Second: TCCCGACCTTGGGTTCTAACCTGTTGCCT (site TCCCGAGCTAG)
The “recombinant barcode read abundance (log10)” value of the first is higher: 1.72 for the first, 0.107 for the second.

“TCCCGACCTTGGGTTCTAACCTGTTGCCT (site TCCCGATCTAG)” and “TCCCGCCCTTGGGTTCTAACCTGTTGCCT (site GCACGCCCTAG)” are within 0.2 log units of each other in “recombinant barcode read abundance (log10)” value: 0.0793 for the first, 0.0125 for the second.

Going from “TCCCGCCCTTGGGTTCTAACCTGTTGCCT (site TCCCGCCCTAG)” to “TCCCGGACTTGGGTTCTAACCTGTTGCCT (site TCACGGACTAG)”, the “recombinant barcode read abundance (log10)” value falls from 0.464 to 0.212.

With “TCCCGGACTTGGGTTCTAACCTGTTGCCT (site TCCCGGACTAG)” the “recombinant barcode read abundance (log10)” value was 0.892.
